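These data come from cells grown in 96-well plates and exposed to compound for 48 hours at five concentrations. At the GI50, growth is halved.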 Calls of active or inactive are those of the source. Rule as the data show it: active = GI50 up to about 1.1 µM and inactive = higher.
How the values were obtained:
Assay in all cases: DTP human tumour cell line panel, 48 h
SNB-19 = test system: SNB-19
TK-10 = test system: TK-10
HOP-62 = test system: HOP-62
SN12C = test system: SN12C
CCRF-CEM = test system: CCRF-CEM
Malme-3M = test system: Malme-3M
U-251 = test system: U-251
NCI-H460 = test system: NCI-H460
NCI-H226 = test system: NCI-H226
MOLT-4 = test system: MOLT-4
OVCAR-3 = test system: OVCAR-3
M14 = test system: M14
OVCAR-8 = test system: OVCAR-8
A498 = test system: A498
UACC-257 = test system: UACC-257
LOX IMVI = test system: LOX IMVI
SK-MEL-5 = test system: SK-MEL-5
HCT-116 = test system: HCT-116

Measured: GI50

COc1ccc(C(=O)Nc2ccccc2)cc1[N+](=O)[O-]
inactive: SNB-19 > 100 µM | TK-10 > 100 µM | HOP-62 > 100 µM | SN12C > 100 µM | CCRF-CEM > 100 µM | Malme-3M > 100 µM | U-251 > 100 µM | NCI-H460 > 100 µM | NCI-H226 > 100 µM | MOLT-4 97.5 µM | OVCAR-3 58.9 µM | M14 > 100 µM | OVCAR-8 > 100 µM | A498 > 100 µM | UACC-257 > 100 µM | LOX IMVI > 100 µM | SK-MEL-5 31.5 µM

CC(=O)Nc1ccc(-c2nnc(SCC(=O)Nc3cccc(Cl)c3)o2)cc1
inactive: SNB-19 22 µM | TK-10 19.6 µM | HOP-62 19.7 µM | HCT-116 12.9 µM | SN12C 16 µM | CCRF-CEM 6.18 µM | Malme-3M 12.4 µM | U-251 9.84 µM | NCI-H460 13.1 µM | NCI-H226 17.7 µM | MOLT-4 19.1 µM | OVCAR-3 7.11 µM | M14 11.8 µM | OVCAR-8 33.2 µM | A498 16.3 µM | UACC-257 17.3 µM | LOX IMVI 10.3 µM | SK-MEL-5 13.9 µM

O=C(c1cccc2ccccc12)N1CCC(C2CCN(C(=O)c3cccc4ccccc34)CC2)CC1
inactive: TK-10 > 100 µM | HOP-62 > 100 µM | HCT-116 > 100 µM | SN12C > 100 µM | CCRF-CEM > 100 µM | Malme-3M > 100 µM | U-251 > 100 µM | NCI-H460 > 100 µM | NCI-H226 > 100 µM | MOLT-4 > 100 µM | OVCAR-3 > 100 µM | M14 > 100 µM | OVCAR-8 > 100 µM | A498 > 100 µM | UACC-257 > 100 µM | LOX IMVI > 100 µM | SK-MEL-5 > 100 µM

CC(NS(=O)(=O)c1ccc([N+](=O)[O-])cc1)C(=O)O (stereo unspecified)
inactive: SNB-19 > 100 µM | TK-10 > 100 µM | SN12C > 100 µM | CCRF-CEM > 100 µM | Malme-3M > 100 µM | U-251 > 100 µM | NCI-H460 > 100 µM | NCI-H226 > 100 µM | MOLT-4 > 100 µM | OVCAR-3 > 100 µM | M14 > 100 µM | OVCAR-8 > 100 µM | A498 > 100 µM | UACC-257 > 100 µM | LOX IMVI > 100 µM | SK-MEL-5 > 100 µM

CC(=O)N1CCN(C=S)CC1
inactive: SNB-19 > 100 µM | TK-10 > 100 µM | HOP-62 > 100 µM | HCT-116 > 100 µM | SN12C > 100 µM | CCRF-CEM > 100 µM | Malme-3M > 100 µM | U-251 > 100 µM | NCI-H460 > 100 µM | NCI-H226 > 100 µM | MOLT-4 > 100 µM | OVCAR-3 > 100 µM | M14 > 100 µM | OVCAR-8 > 100 µM | A498 > 100 µM | UACC-257 > 100 µM | LOX IMVI > 100 µM | SK-MEL-5 > 100 µM

O=C1[C@@H]2C3C=CC([C@H]4C(=O)N(CO)C(=O)[C@@H]34)[C@@H]2C(=O)N1CO
inactive: SNB-19 > 100 µM | TK-10 > 100 µM | HOP-62 > 100 µM | HCT-116 34.9 µM | SN12C > 57.5 µM | CCRF-CEM 25.2 µM | Malme-3M > 100 µM | U-251 > 56.2 µM | NCI-H460 30.2 µM | NCI-H226 > 100 µM | MOLT-4 34 µM | OVCAR-3 > 100 µM | M14 > 50.7 µM | OVCAR-8 35.6 µM | A498 > 100 µM | UACC-257 > 100 µM | LOX IMVI 42.1 µM | SK-MEL-5 59 µM

N#CSCc1nc2ccc(Cl)cc2c(-c2ccccc2)[n+]1[O-]
inactive: SNB-19 41.6 µM | TK-10 > 100 µM | HOP-62 > 100 µM | HCT-116 19.7 µM | SN12C 20 µM | CCRF-CEM 14.5 µM | Malme-3M 24.6 µM | U-251 29.4 µM | NCI-H460 40.3 µM | NCI-H226 33.7 µM | MOLT-4 14.6 µM | OVCAR-3 26.8 µM | M14 21.9 µM | OVCAR-8 19.7 µM | A498 > 100 µM | UACC-257 42.3 µM | LOX IMVI 18 µM

O=C1CC(O)C=C1Nc1ccc(Cl)cc1 (stereo unspecified)
inactive: SNB-19 80.7 µM | TK-10 > 100 µM | HOP-62 79.6 µM | HCT-116 30.6 µM | SN12C 62.5 µM | CCRF-CEM 11.4 µM | Malme-3M 59.8 µM | U-251 49.3 µM | NCI-H460 23.1 µM | NCI-H226 > 100 µM | MOLT-4 16.4 µM | OVCAR-3 71.6 µM | M14 10.3 µM | OVCAR-8 49.2 µM | A498 13.8 µM | UACC-257 52.4 µM | LOX IMVI 25.4 µM | SK-MEL-5 30.5 µM

CCOC(=O)c1[nH]c2c(OC)n[n+]([O-])cc2c1[N+](=O)[O-]
inactive: SNB-19 25.6 µM | TK-10 16.4 µM | HOP-62 56.8 µM | HCT-116 19 µM | SN12C 20.4 µM | CCRF-CEM 26.1 µM | Malme-3M 18.3 µM | U-251 17 µM | NCI-H460 21.1 µM | NCI-H226 26.9 µM | MOLT-4 31.9 µM | OVCAR-3 20.6 µM | M14 19.9 µM | OVCAR-8 19.9 µM | A498 21.8 µM | UACC-257 19 µM | LOX IMVI 16.4 µM

Cc1c2c(cc[n+]1C)O[B-](c1ccccc1)(c1ccccc1)O2
inactive: TK-10 55.2 µM | HOP-62 > 100 µM | HCT-116 46.7 µM | SN12C 51.8 µM | CCRF-CEM 35.9 µM | Malme-3M 65.5 µM | U-251 53.2 µM | NCI-H460 50 µM | NCI-H226 48.6 µM | MOLT-4 35.5 µM | OVCAR-3 43.7 µM | M14 41.5 µM | OVCAR-8 67.3 µM | A498 64 µM | UACC-257 55.5 µM | LOX IMVI 51.2 µM | SK-MEL-5 83.4 µM

CC1(C)C(=NNC(=O)C[N+](C)(C)C)C(C)(C)C1=NNC(=O)C[N+](C)(C)C
inactive: SNB-19 > 100 µM | TK-10 > 100 µM | HOP-62 > 100 µM | HCT-116 > 100 µM | SN12C > 100 µM | CCRF-CEM > 100 µM | Malme-3M > 100 µM | U-251 > 100 µM | NCI-H460 > 100 µM | NCI-H226 > 100 µM | MOLT-4 > 100 µM | OVCAR-3 > 100 µM | M14 > 100 µM | OVCAR-8 > 100 µM | A498 > 100 µM | UACC-257 > 100 µM | LOX IMVI 72.9 µM | SK-MEL-5 > 100 µM
